In patent US9981972B2, “N-hydroxy bicyclic hydantoin carbamates as tools for identification of serine hydrolase targets” (ABIDE THERAPEUTICS, INC., priority 2014, dated 2018):

Columns and labels:
PPT1 = target: T1, PPT1 (Homo sapiens, UniProt P50897); test: ABPP-SILAC, PC3 cells treated in situ, Compound 39 probe; type: cell-based; design: endogenous in cells; host or cells: PC3; conditions: 4 h in situ
T1 sequence (P50897 28-306): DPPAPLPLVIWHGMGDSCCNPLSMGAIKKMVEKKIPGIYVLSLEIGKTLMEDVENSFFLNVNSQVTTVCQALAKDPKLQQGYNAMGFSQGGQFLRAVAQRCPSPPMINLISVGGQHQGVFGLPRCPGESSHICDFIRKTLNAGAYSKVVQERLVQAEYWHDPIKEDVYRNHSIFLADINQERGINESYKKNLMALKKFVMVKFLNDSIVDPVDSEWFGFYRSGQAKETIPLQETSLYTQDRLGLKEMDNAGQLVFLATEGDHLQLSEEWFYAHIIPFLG
Description: In situ inhibitor treatments of human cell lines were performed as described previously (Hsu et al., J Med Chem 56, 8270-8279, 2012). Briefly, PC3 or transfected HEK293T cells were grown to confluency in serum-containing media (RPMI or DMEM, respectively). The culture media was then removed and replaced with fresh media containing DMSO or inhibitor at the desired concentration and incubated for 4 hours in a tissue culture incubator (37° C., 5% CO2). Cells were then washed with PBS, harvested, washed with PBS once more, and lysed with a probe sonicator.
Isotopically heavy- and light-labeled PC3 cells were treated with Compound 37 (1 μM) or DMSO for 4 h, respectively, lysed, and then treated Compound 39 (5 μM, 1 h). […] Accordingly, PPT1 was not detected in our previous ABPP-SILAC studies with FP-biotin (see FIG. 9). […]
To evaluate the broader selectivity of Compound 26 and Compound 34 across the SH class, heavy and light isotopically-labeled PC3 cells were treated with inhibitor [Compound 34 (1 μM); or Compound 26 (1 or 0.1 μM); 4 h) and DMSO, respectively, followed by ABPP-SILAC analysis with either the FP-biotin probe or the Compound 39 probe. […] Conversely, Compound 34 inhibited >90% of ABHD4 activity, as measured with either the FP-biotin probe or the Compound 39 probe, and cross-reacted with four additional targets—ABHD6, PAFAH2, PLA2G7, and PLA2G15.

LYPLA1/2 = test: Inhibition by gel-based competitive ABPP in vivo (FP-Rh probe); design: species or system mouse
Description: (§1) In this assay, test compounds were administered to mice. Mice were sacrificed, and their tissues harvested, homogenized, and the soluble fractions isolated, reacted with FP-Rh, and separated by SDS-PAGE as described above.
(§2) Protocol Summary: Purpose-bred 3-4 month old male C57BL6 laboratory mice were i.p. administered test compound (0.5-50 mg/kg in 18:1:1 saline:PEG-40-castor oil:EtOH vehicle solution, 10 μL/g mouse weight) or vehicle only. After 4 hours, mice were humanely sacrificed (anesthetized with isoflurane followed by cervical dislocation), and tissues (liver, kidney, brain) removed and snap frozen in liquid nitrogen before processing. Tissues were homogenized, and soluble proteome isolated by ultracentrifugation (100 k×g, 45 minutes) and protein concentration adjusted to 1 mg/mL in DPBS. An aliquot (50 μL) was reacted with FP-Rh (2 μM final concentration) for 30 minutes at 25° C. Reactions were quenched with 16 μL 4×SDS-PAGE loading buffer (reducing), separated by SDS-PAGE, and visualized by in-gel fluorescent scanning. The percentage activity remaining was determined by measuring the integrated optical density of test compound bands relative to vehicle bands. Note: Due to the overlapping nature of LYPLA1 and LYPLA2 bands, the proteins were quantified together.
(§3) The in vivo inhibitory activity of Compound 1 was assessed. For this experiment, mice were administered test compound (0.5-50 mg/kg, i.p.) or vehicle only. After four hours mice were sacrificed and their tissues removed, homogenized, and the soluble fractions isolated and labeled with FP-Rh followed by SDS-PAGE and fluorescent detection of FP-labeled SHs (see FIG. 3B).
(§4) Compound 26, Compound 34, and Compound 1 were administered across a dose range of 1-40 mg/kg to C57BL6 mice by intraperitoneal injection, and, after 4 hours, animals were sacrificed and tissues harvested for analysis by gel-based ABPP using the FP-Rh probe and the Compound 39 probe.

[1] = tested on: other SHs (anti-targets) in mouse tissues; test: Inhibition by gel-based competitive ABPP in vivo, other SHs; conditions: 4 h
Description: as §1, §2, §3, §4

Compound: COc1ccc(N2CCN(C(=O)ON3C(=O)C4CN(Cc5ccc(Oc6ccccc6)cc5)CCN4C3=O)CC2)cc1 (stereo not shown) [Compound 37, 1,3-dioxo-7-(4-phenoxybenzyl)hexahydroimidazo[1,5-a]pyrazin-2(3H)-yl 4-(4-methoxyphenyl)piperazine-1-carboxylate]
- inhibition at 1 µM (PPT1; PC-3, 1 μM, Compound 39 probe (5 μM, 1 h)): > 90%

Compound: COc1ccc(N2CCN(C(=O)ON3C(=O)C4CN(CC5CCN(Cc6ccccc6)CC5)CCN4C3=O)CC2)cc1 (stereo not shown) [Compound 26, 7-((1-benzylpiperidin-4-yl)methyl)-1,3-dioxohexahydroimidazo[1,5-a]pyrazin-2(3H)-yl 4-(4-methoxyphenyl)piperazine-1-carboxylate]
- mLYPLA1/2 (in vivo), % @ 40 mg/kg (testis) (LYPLA1/2; 40 mg/kg, testis, mouse): 0% @
- inhibition of PPT1 in PC3 cells (PPT1; 1 or 0.1 μM, Compound 39 probe): ~90%
- inhibition of other SHs in vivo ([1]; 1-40 mg/kg i.p., brain and testis, FP-Rh or Compound 39 probe): did not inhibit other SHs

Compound: O=C(ON1C(=O)C2CN(C(=O)N3CCOCC3)CCN2C1=O)N1CCC(CCc2ccc(Cl)cc2)CC1 (stereo not shown) [Compound 1, 7-(morpholine-4-carbonyl)-1,3-dioxohexahydroimidazo[1,5-a]pyrazin-2(3H)-yl 4-(4-chloro-phenethyl)piperidine-1-carboxylate]
- blockade of LYPLA1 and LYPLA2 in vivo (LYPLA1/2; 5 mg/kg i.p., 4 h, FP-Rh probe): near-complete blockade of LYPLA1 and LYPLA2 in peripheral (e.g., liver, kidney), but not central (brain) tissues
- mLYPLA1/2 (in vivo), % @ 5 mg/kg (liver and kidney) (LYPLA1/2; 5 mg/kg, liver and kidney, mouse): 100% @
- inhibition of LYPLA1/2 in liver and kidney (LYPLA1/2; 0.5-50 mg/kg i.p., 4 h, liver and kidney): ~90%
- inhibition of LYPLA1/2 in the brain (LYPLA1/2; highest dose 50 mg/kg i.p., 4 h, brain): ~75%
- anti-target inhibition in vivo ([1]; 0.5-50 mg/kg i.p., any tissue, ABHD6 not visible): no significant anti-target inhibition
- cross-reactivity with other SHs in vivo ([1]; 1-40 mg/kg i.p.): limited cross-reactivity with other SHs
